# Paper PMC10254923 (2023)
# How the values were obtained:
# [1] = system: poly dAdT—poly dAdT; p(dAdT)2 (DNA, polymer) AT; assay: fluorimetric titration, Scatchard (McGhee-von Hippel) fit; details: Na+ (sodium cacodylate, I = 0.05 M); pH 7.0, 25 °C; n fixed 0.2; polynucleotide concentration as phosphates; per base
# [2] = system: poly rA—poly rU; prAprU (RNA, polymer) A/U; assay: UV thermal denaturation at 260 nm; details: Na+ (sodium cacodylate, I = 0.05 M); pH 7.0; r = [compound]/[polynucleotide] = 0.1; error ±0.5 °C; per base
# [3] = system: poly rA—poly rU; prAprU (RNA, polymer) A/U; assay: fluorimetric titration, Scatchard (McGhee-von Hippel) fit; details: Na+ (sodium cacodylate, I = 0.05 M); pH 7.0, 25 °C; n fixed 0.2; polynucleotide concentration as phosphates; per base
# [4] = system: poly dAdT—poly dAdT; p(dAdT)2 (DNA, polymer) AT; assay: UV thermal denaturation at 260 nm; details: Na+ (sodium cacodylate, I = 0.05 M); pH 7.0; r = [compound]/[polynucleotide] = 0.1; error ±0.5 °C; per base
# [5] = system: poly dGdC—poly dGdC; p(dGdC)2 (DNA, polymer) GC; assay: fluorimetric titration, Scatchard (McGhee-von Hippel) fit; details: Na+ (sodium cacodylate, I = 0.05 M); pH 7.0, 25 °C; n fixed 0.2; polynucleotide concentration as phosphates; per base
# [6] = system: poly rA—poly rU; prAprU (RNA, polymer) A/U; assay: UV/vis titration, Scatchard (McGhee-von Hippel) fit; details: Na+ (sodium cacodylate, I = 0.05 M); pH 7.0, 25 °C; n fixed 0.2; polynucleotide concentration as phosphates; per base
# [7] = system: poly dGdC—poly dGdC; p(dGdC)2 (DNA, polymer) GC; assay: as above; details: Na+ (sodium cacodylate, I = 0.05 M); pH 7.0, 25 °C; n fixed 0.2; polynucleotide concentration as phosphates; per base
# [8] = system: poly dAdT—poly dAdT; p(dAdT)2 (DNA, polymer) AT; assay: as above; details: Na+ (sodium cacodylate, I = 0.05 M); pH 7.0, 25 °C; n fixed 0.2; polynucleotide concentration as phosphates; per base
logKs [1],ΔTm [2] [°C],logKs [3],ΔTm [4] [°C],logKs [5],logKs [6],logKs [7],logKs [8],SMILES
8.7,7.4,7.4,9.6,8.0,,,,Cc1cc(-c2cc3ccc4cc(-c5cc(C)c(B(c6c(C)cc([N+](C)(C)C)cc6C)c6c(C)cc([N+](C)(C)C)cc6C)c(C)c5)cc5ccc(c2)c3c45)cc(C)c1B(c1c(C)cc([N+](C)(C)C)cc1C)c1c(C)cc([N+](C)(C)C)cc1C
,12.1,,6.7,,7.5,6.0,6.1,Cc1cc(-c2ccc(-c3ccc(-c4cc(C)c(B(c5c(C)cc([N+](C)(C)C)cc5C)c5c(C)cc([N+](C)(C)C)cc5C)c(C)c4)cc3)cc2)cc(C)c1B(c1c(C)cc([N+](C)(C)C)cc1C)c1c(C)cc([N+](C)(C)C)cc1C
6.9,9.3,7.9,8.2,7.4,,,,Cc1cc(-c2ccc3c(c2)Cc2cc(-c4cc(C)c(B(c5c(C)cc([N+](C)(C)C)cc5C)c5c(C)cc([N+](C)(C)C)cc5C)c(C)c4)ccc2-3)cc(C)c1B(c1c(C)cc([N+](C)(C)C)cc1C)c1c(C)cc([N+](C)(C)C)cc1C
